Measured values: US20200368322A1, “METHODS OF IDENTIFYING AND USING AGENTS FOR TREATING DISEASES ASSOCIATED WITH INTESTINAL BARRIER DYSFUNCTION” (Yeda Research and Development Co. Ltd., priority 2018, published 2020)
Entries after “also recorded” stand apart in the source; their conditions may differ. No end group written: not given here.

Columns and labels:
[1] = test system: tight junctions of Caco2 cells; test: Human secreted molecules library screen for tight junction modulators; type: cell-based; conditions: Caco2, 24 hours; ng/ml: TNFa 50, Il-15 25, CCL-20 50, CCL-23 50, FGF-1 25, FGF-10 100, BMP-10 50, UTS-2 10, UCN-1 20, EPO 10, UCN-3 20, IL-21 30, CCL-3 40, TIMP-2 100, FasLG 10
Method: (§1) CaCo-2 cells were purchased from ATCC. Cells were routinely grown in regular tissue culture medium (DMEM, 10% FCS, penicillin/streptomycin, GlutaMAX). For experiments with differing glucose concentrations, cells were routinely cultured in low-glucose DMEM (1 g/l glucose). Cells were seeded onto 96-well glass-bottom plates coated with either fibronectin or collagen 70 000 cells/well and allowed to grow for 24 hours to form confluent monolayer before indicated treatments.
(§2) Cell images were segmented using Morphological Segmentation ImageJ plug-in and junction tortuosity was calculated as a ratio between junction length and Euclidian distance between its ends.
A protein library, consisting of 295 human secreted proteins was used for identification of potential modulators of the barrier function of human intestinal epithelial cells.

[2] = test system: tight junctions of Caco2 cells; test: Caco2 tight junction morphology (cingulin or ZO-1 staining, tortuosity); type: cell-based, human; conditions: for tight junctions morphology (cingulin): 50 ng/ml TNFa, 30 ng/ml IL1-b, 100 ng/ml LPS; for tight junction distortion caused by LPS: 10 mM taurine, 1 mM tryptamine, 10 mM L-homo-serine, in combination with LPS; for tight junction morphology: 10 mM acetyl-proline, 1 mM putrescine, 10 mM histamine, 5 mM spermine; for tight junction disruption phenotype (type 1 zipper-like, type 2 flower-like): known IBD mediators
Method: as §1
(§3) For high resolution images of manually selected representative fields, a DeltaVision wide field fluorescent microscope (GE Healthcare) equipped with 40×UPlanFLN or 60×/1.42 PlanApo N oil objective (Olympus) was used. For multi-well plate scanning, the following automated imaging stations were used: DeltaVision microscope with plate scanning regiment, Hermes imaging station (IDEA bio-Medical) or ImagExpress microXL imaging station (Molecular Devices) equipped by 40× air objectives. In all cases in order to cover the curvature of apical surface of epithelial monolayer 5 μm thick z-stack was acquired around the tight junction plane (identified by best focus algorithm) and resulting image was generated as a maximum projection of all optical sections.
as §2

Caco2 cells = test: Traction force microscopy; type: cell-based, human; conditions: Caco2 islands on polyacrylamide hydrogels, 24 hours treatment
Method: SoftTrac 6 well plates with pre-made collagen coated 12 kPa hydrogels containing embedded 0.2 μm fluorescent beads were purchased from Matrigen. 200,000 cells per well were plated and allowed to grow for 24 hours to form epithelial islands, treated with the indicated metabolite for another 24 hours and live-imaged using DeltaVision microscope equipped with environmental chamber. After acquisition of cell and fluorescent bead images in steady state conditions, cells were detached with trypsin and imaging of beads was repeated in a relaxed state. Displacement map generation and force calculations were performed using MatLab script described in Butler et al. Am J Physiol Cell Physiol. 2002.

[3] = test system: focal adhesions of Caco2 cells; test: Caco2 cell-matrix focal adhesions (paxillin staining); type: cell-based, human; conditions: for focal adhesions size vs control non treated cells / enlargement of focal adhesions caused by LPS: 1 mM tryptamine, 10 mM L-homo-serine; for enlargement of focal adhesions caused by LPS: with LPS; for focal adhesions size: 10 mM acetyl-proline, 1 mM putrescine, 10 mM histamine, 5 mM spermine
Method: as §1, §3

Molecule: Urocortin 3 (FTLSLDVPTNIMNLLFNIAKAKNLRAQAAANAHLMAQI; ends and bridges not checked; UniProt Q969E3 120-157, looked up) [UCN-3]
- TJ morphology (cingulin) in secreted molecules screen [1]: changes in TJ morphology similar to previously observed upon treatment with known pro-inflammatory mediators

Molecule: IL1-b: cytokine, known pro-inflammatory IBD mediator
- tight junctions morphology (cingulin) ([2]; Caco2 cells): significant alteration in tight junctions morphology

Molecule: NCCc1c[nH]c2ccccc12 [tryptamine]
- forces applied to the substrate (cell contractility) (Caco2 cells): cause cell relaxation
- focal adhesions size vs control non treated cells [3]: reduction in focal adhesions size
- enlargement of focal adhesions caused by LPS [3]: prevent enlargement focal adhesions caused by LPS treatment
- recovery of TJ structure on replacement of disruptors with stabilizer ([2]; CaCo2 cells pretreated with LPS, histamine or putrescine, even in the presence of the disruptors): full recovery of TJ structure
- effect on tight junctions in metabolite screen ([2]; Caco2 cells): Stabilization
- tight junction distortion caused by LPS ([2]; Caco2 cells): abolish tight junction distortion caused by LPS treatment alone
- disrupting activity of dysbiotic fecal extract ([2]; Caco2 cells, extract combined with 1 mM tryptamine or fecal extract from healthy animals): neutralized

Molecule: Interleukin-15 [Il-15]
- TJ morphology (cingulin) in secreted molecules screen [1]: changes in TJ morphology similar to previously observed upon treatment with known pro-inflammatory mediators

Molecule: N[C@@H](CCO)C(=O)O [L-homoserine]
- focal adhesions size vs control non treated cells [3]: reduction in focal adhesions size
- enlargement of focal adhesions caused by LPS [3]: prevent enlargement focal adhesions caused by LPS treatment
- effect on tight junctions in metabolite screen ([2]; Caco2 cells): Stabilization
- tight junction distortion caused by LPS ([2]; Caco2 cells): abolish tight junction distortion caused by LPS treatment alone

Molecule: Urotensin 2 (ETPDCFWKYCV; ends and bridges not checked; cysteine pairing not given here; UniProt O95399 114-124, looked up) [UTS-2]
- TJ morphology (cingulin) in secreted molecules screen [1]: changes in TJ morphology similar to previously observed upon treatment with known pro-inflammatory mediators

Molecule: CC(=O)N1CCC[C@H]1C(=O)O [N-acetylproline]
- focal adhesions size [3]: increase of focal adhesions size
- effect on tight junctions in metabolite screen ([2]; Caco2 cells): Disruption
- tight junction morphology ([2]; Caco2 cells): distortion of tight junction morphology

Molecule: Cc1ccc2c(c1)C(=O)C1(O)CCN(c3ccccc3)C1=N2 (stereo not shown) [blebbistatin, reference compound]
- forces applied to the substrate (cell contractility) (Caco2 cells): cause cell relaxation
- focal adhesions enlarged by LPS or histamine ([3]; co-treatment with 20 μM blebbistatin): reduction of focal adhesions
- disruptive effect of LPS and histamine on tight junctions ([2]; Caco2 cells, co-treatment with 20 μM blebbistatin): abolishes disruptive effect of LPS and histamine on tight junctions

Molecule: TNFa
- TJ morphology (cingulin) in secreted molecules screen [1]: changes in TJ morphology similar to previously observed upon treatment with known pro-inflammatory mediators
- tight junction disruption phenotype (type 1 zipper-like, type 2 flower-like) ([2]; Caco2 cells): type 1
- tight junctions morphology (cingulin) ([2]; Caco2 cells): significant alteration in tight junctions morphology

Molecule: Urocortin 1 (DNPSLSIDLTFHLLRTLLELARTQSQRERAEQNRIIFDSV; ends and bridges not checked; UniProt P55089 83-122, looked up) [UCN-1]
- TJ morphology (cingulin) in secreted molecules screen [1]: changes in TJ morphology similar to previously observed upon treatment with known pro-inflammatory mediators

Molecule: Tissue metalloprotease inhibitor 2 [TIMP-2]
- TJ morphology (cingulin) in secreted molecules screen [1]: improvement of TJ morphology in comparison to non-treated control

Molecule: Chemokine ligand 20 [CCL-20]
- TJ morphology (cingulin) in secreted molecules screen [1]: changes in TJ morphology similar to previously observed upon treatment with known pro-inflammatory mediators

Molecule: Interleukin-21 [IL-21]
- TJ morphology (cingulin) in secreted molecules screen [1]: improvement of TJ morphology in comparison to non-treated control
- enlargement of focal adhesions on co-treatment with disruptor ([3]; paxilin): prevents enlargement of focal adhesions caused by treatments with disruptors only
- distortion of tight junctions on co-treatment of stabilizer with disruptor ([2]; Caco2 cells, cingulin): abolished distortion of tight junctions observed in the treatment with disruptors alone
- TJ tortuosity on co-treatment of disruptor with stabilizer ([2]; Caco2 cells, N≥200): reduces tortuosity to the level of untreated control

Molecule: Fibroblast growth factor 1 [FGF-1]
- TJ morphology (cingulin) in secreted molecules screen [1]: changes in TJ morphology similar to previously observed upon treatment with known pro-inflammatory mediators

Molecule: NCCCNCCCCNCCCN [spermine]
- focal adhesions size [3]: increase of focal adhesions size
- effect on tight junctions in metabolite screen ([2]; Caco2 cells): Disruption
- tight junction disruption phenotype (type 1 zipper-like, type 2 flower-like) ([2]; Caco2 cells): type 2
- tight junction morphology ([2]; Caco2 cells): distortion of tight junction morphology
- tight junction phenotype in combination with LPS ([2]; Caco2 cells, type 2 disruptor plus LPS): double effect

B1: Fibroblast growth factor 10 (protein, UniProt O15520 38-208, looked up)
Fibroblast growth factor 10: QALGQDMVSPEATNSSSSSFSSPSSAGRHVRSYNHLQGDVRWRKLFSFTKYFLKIEKNGKVSGTKKENCPYSILEITSVEIGVVAVKAINSNYYLAMNKKGKLYGSKEFNNDCKLKERIEENGYNTYASFNWQHNGRQMYVALNGKGAPRRGQKTRRKNTSAHFLPMVVHS
- TJ morphology (cingulin) in secreted molecules screen [1]: changes in TJ morphology similar to previously observed upon treatment with known pro-inflammatory mediators

B2: IL-22: human non-inflammatory cytokine (protein, UniProt Q9GZX6 34-179, looked up)
Interleukin-22: APISSHCRLDKSNFQQPYITNRTFMLAKEASLADNNTDVRLIGEKLFHGVSMSERCYLMKQVLNFTLEEVLFPQSDRFQPYMQEVVPFLARLSNRLSTCHIEGDDLHIQRNVQKLKDTVKKLGESGEIKAIGELDLLFMSLRNACI
- tight junction morphology on co-treatment with pro-inflammatory agents ([2]; Caco2 cells, 100 ng/ml IL-22 plus TNFa, IL1-b or LPS): blocked; also recorded: completely restored normal tight junction morphology

B3: Bone morphogenetic protein 10 (protein, UniProt O95393 317-424, looked up)
Bone morphogenetic protein 10: NAKGNYCKRTPLYIDFKEIGWDSWIIAPPGYEAYECRGVCNYPLAEHLTPTKHAIIQALVHLKNSQKASKACCVPTKLEPISILYLDKGVVTYKFKYEGMAVSECGCR
- TJ morphology (cingulin) in secreted molecules screen [1]: changes in TJ morphology similar to previously observed upon treatment with known pro-inflammatory mediators

B4: Chemokine ligand 3 (protein, UniProt P10147 24-92, looked up)
C-C motif chemokine 3: SLAADTPTACCFSYTSRQIPQNFIADYFETSSQCSKPGVIFLTKRSRQVCADPSEEWVQKYVSDLELSA
- TJ morphology (cingulin) in secreted molecules screen [1]: improvement of TJ morphology in comparison to non-treated control

B5: Chemokine ligand 23 (protein, UniProt P55773 22-120, looked up)
C-C motif chemokine 23: RVTKDAETEFMMSKLPLENPVLLDRFHATSADCCISYTPRSIPCSLLESYFETNSECSKPGVIFLTKKGRRFCANPSDKQVQVCMRMLKLDTRIKTRKN
- TJ morphology (cingulin) in secreted molecules screen [1]: changes in TJ morphology similar to previously observed upon treatment with known pro-inflammatory mediators

B6: Fas ligand (protein, UniProt P48023 130-281, looked up)
Tumor necrosis factor ligand …: QIGHPSPPPEKKELRKVAHLTGKSNSRSMPLEWEDTYGIVLLSGVKYKKGGLVINETGLYFVYSKVYFRGQSCNNLPLSHKVYMRNSKYPQDLVMMEGKMMSYCTTGQMWARSSYLGAVFNLTSADHLYVNVSELSLVNFEESQTFFGLYKL
- TJ morphology (cingulin) in secreted molecules screen [1]: improvement of TJ morphology in comparison to non-treated control
